Patent US10124004B2, “Pyrido[3,4-d]pyrimidine derivative and pharmaceutically acceptable salt thereof” (Teijin Pharma Limited, priority 2015, dated 2018)
pIC50: −log10 of the molar value. Where two headings read alike, the source gives them in different places.

Columns and labels:
CDK2/cyclin A2 = molecular target: T1, CDK2/cyclin A2 (Homo sapiens, UniProt P24941); test: Human CDK2/cyclin A2 inhibitory activity (QS S Assist CDK2/Cyclin A2_FP Kit, IMAP fluorescence polarization); type: biochemical
T1 construct: purchased Carna Biosciences, Inc. QS S Assist CDK2/Cyclin A2_FP Kit
Procedure, shortened: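 Kinase activity read as fluorescence polarization (485/535 nm) after phosphorylated fluorescent substrate binds IMAP reagent (30 min, RT, dark). Enzyme (2.5 ng/well) reacted 60 min at RT with ATP/substrate/metal in HEPES pH 7.4 buffer with Tween 20 and DTT; no-enzyme wells define 0% activity; IC50 by curve fit.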

CDK4/cyclin D3 = molecular target: T2, CDK4/cyclin D3 (Homo sapiens, UniProt P11802); test: Human CDK4/cyclin D3 inhibitory activity (QS S Assist CDK4/Cyclin D3_FP Kit, IMAP fluorescence polarization); type: biochemical
T2 construct: purchased Carna Biosciences, Inc. QS S Assist CDK4/Cyclin D3_FP Kit
T2 sequence (P11802 whole entry): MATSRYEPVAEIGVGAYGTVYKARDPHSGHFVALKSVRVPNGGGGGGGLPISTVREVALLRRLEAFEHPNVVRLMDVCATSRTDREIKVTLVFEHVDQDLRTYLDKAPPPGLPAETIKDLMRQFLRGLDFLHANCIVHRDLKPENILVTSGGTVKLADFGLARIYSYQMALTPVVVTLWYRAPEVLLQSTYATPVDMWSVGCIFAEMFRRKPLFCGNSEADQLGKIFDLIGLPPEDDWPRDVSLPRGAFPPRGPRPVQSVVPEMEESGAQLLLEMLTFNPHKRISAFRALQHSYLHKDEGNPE
T2 sequence (P30281 whole entry partner): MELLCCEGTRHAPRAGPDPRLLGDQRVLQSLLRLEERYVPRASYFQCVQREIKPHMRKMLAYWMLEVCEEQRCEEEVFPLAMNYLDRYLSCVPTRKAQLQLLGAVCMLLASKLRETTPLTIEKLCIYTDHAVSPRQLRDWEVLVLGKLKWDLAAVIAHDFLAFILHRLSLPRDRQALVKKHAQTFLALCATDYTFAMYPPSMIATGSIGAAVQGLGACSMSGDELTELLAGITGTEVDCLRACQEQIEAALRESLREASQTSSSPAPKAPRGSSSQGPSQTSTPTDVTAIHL
Procedure, shortened: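 Percent inhibition, relative to DMSO with and without enzyme, was curve-fitted to give IC50 from polarization (ex 485, em 535 nm). The 45-min room-temperature reaction used 12.5-25 ng/well enzyme, kit ATP/substrate/metal mix, and HEPES pH 7.4 buffer with Tween20 and DTT, followed by 30-min IMAP binding in the dark.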

[1] = Human CDK2/cyclin A2 inhibitory activity, read-out: CDK2 Activity symbol
[2] = Human CDK4/cyclin D3 inhibitory activity, read-out: CDK4 Activity symbol
[3] = 50% inhibitory concentration against CDK2/cyclin A2, given as class symbol
[4] = 50% inhibitory concentration against CDK4/cyclin D3, given as class symbol

CC(C)Nc1nc(C(F)F)cc2cnc(Nc3ccc(CCNS(C)(=O)=O)cn3)nc12 [Compound 151]
pIC50 (CDK2/cyclin A2; [1]): 7.00 to 8.00 | pIC50 (CDK4/cyclin D3; [2]): > 8.00

CC(=O)NCCc1ccc(Nc2ncc3cc(C(F)F)nc(NC(C)C)c3n2)nc1 [Compound 150]
pIC50 (CDK2/cyclin A2; [1]): 7.00 to 8.00 | pIC50 (CDK4/cyclin D3; [2]): > 8.00

CC(C)Nc1nc(C(F)F)cc2cnc(Nc3ccc(CCCO)cn3)nc12 [Compound 164]
pIC50 (CDK2/cyclin A2; [1]): 7.00 to 8.00 | pIC50 (CDK4/cyclin D3; [2]): > 8.00

COC(=O)CNCCNc1ccc(Nc2ncc3cc([C@@H](C)O)nc(NC(C)C)c3n2)nc1 [Compound 717]
pIC50 (CDK2/cyclin A2; [3]): ≤ 7.00 | pIC50 (CDK4/cyclin D3; [4]): 7.00 to 8.00

CC(O)c1cc2cnc(Nc3ccc(N4CCNCC4)cn3)nc2c(N(C)C2CCOCC2)n1 (stereo not shown) [Compound 11]
pIC50 (CDK2/cyclin A2; [1]): ≤ 7.00 | pIC50 (CDK4/cyclin D3; [2]): 7.00 to 8.00

CC(C)Nc1nc([C@@H](C)O)cc2cnc(Nc3ccc(CN4CCC(C(=O)O)CC4)cn3)nc12 [Compound 770]
pIC50 (CDK2/cyclin A2; [3]): ≤ 7.00 | pIC50 (CDK4/cyclin D3; [4]): 7.00 to 8.00

CNC(=O)CN1CCN(Cc2ccc(Nc3ncc4cc([C@@H](C)OC)nc(NC(C)C)c4n3)nc2)CC1 [Compound 971]
pIC50 (CDK2/cyclin A2; [3]): ≤ 7.00 | pIC50 (CDK4/cyclin D3; [4]): > 8.00

CO[C@H](C)c1cc2cnc(Nc3ccc(C4CCNCC4)nn3)nc2c(NC(C)C)n1 [Compound 311]
pIC50 (CDK2/cyclin A2; [1]): ≤ 7.00 | pIC50 (CDK4/cyclin D3; [2]): > 8.00

CCCNc1nc([C@@H](C)O)cc2cnc(Nc3ccc(CN4CCC(CO)CC4)cn3)nc12 [Compound 1040]
pIC50 (CDK2/cyclin A2; [3]): ≤ 7.00 | pIC50 (CDK4/cyclin D3; [4]): > 8.00

C[C@@H](O)c1cc2cnc(Nc3ccc(N4CCN(C)CC4)nn3)nc2c(N[C@H]2CCCOC2)n1 [Compound 640]
pIC50 (CDK2/cyclin A2; [3]): ≤ 7.00 | pIC50 (CDK4/cyclin D3; [4]): > 8.00

CC(C)Nc1nc([C@@H](C)O)cc2cnc(Nc3ccc(N4CCN(CC(=O)N(C)C)CC4=O)cn3)nc12 [Compound 962]
pIC50 (CDK2/cyclin A2; [3]): ≤ 7.00 | pIC50 (CDK4/cyclin D3; [4]): > 8.00

CCNc1nc([C@@H](C)OC)cc2cnc(Nc3ccc4c(n3)CCN(CCN(C)C)C4)nc12 [Compound 1131]
pIC50 (CDK2/cyclin A2; [3]): ≤ 7.00 | pIC50 (CDK4/cyclin D3; [4]): 7.00 to 8.00

COCC(C)(C)Nc1nc([C@@H](C)O)cc2cnc(Nc3cnc(N4CCNCC4)cn3)nc12 [Compound 373]
pIC50 (CDK2/cyclin A2; [1]): ≤ 7.00 | pIC50 (CDK4/cyclin D3; [2]): > 8.00

CC(C)Nc1nc([C@@H](C)O)cc2cnc(Nc3ccc(N4CCN(CC(C)(C)O)CC4=O)cn3)nc12 [Compound 627]
pIC50 (CDK2/cyclin A2; [3]): ≤ 7.00 | pIC50 (CDK4/cyclin D3; [4]): > 8.00

CC(C)Nc1nc([C@@H](C)O)cc2cnc(Nc3ccc(N4CCN(C[C@H](C)O)CC4)nn3)nc12 [Compound 676, (S)-1-(4-(6-((6-((R)-1-hydroxyethyl)-8-(isopropylamino)pyrido[3,4-d]pyrimidin-2-yl)amino)pyridazin-3-yl)piperazin-1-yl)propan-2-ol]
pIC50 (CDK2/cyclin A2; [3]): ≤ 7.00 | pIC50 (CDK4/cyclin D3; [4]): > 8.00

CNCCOc1ccc(Nc2ncc3cc([C@@H](C)O)nc(N[C@@H](C)COC)c3n2)nc1 [Compound 757]
pIC50 (CDK2/cyclin A2; [3]): ≤ 7.00 | pIC50 (CDK4/cyclin D3; [4]): > 8.00

C[C@@H](O)c1cc2cnc(Nc3ccc(CN4CCC(CO)CC4)cn3)nc2c(NC2CCC2)n1 [Compound 1150]
pIC50 (CDK2/cyclin A2; [3]): ≤ 7.00 | pIC50 (CDK4/cyclin D3; [4]): > 8.00

CO[C@H](C)c1cc2cnc(Nc3ccc(C(=O)N4CCNCC4)cn3)nc2c(NC(C)C)n1 [Compound 389]
pIC50 (CDK2/cyclin A2; [1]): 7.00 to 8.00 | pIC50 (CDK4/cyclin D3; [2]): > 8.00

CC(C)Nc1nc(C(F)F)cc2cnc(Nc3ccc(CCCN4CCCC4=O)cn3)nc12 [Compound 167]
pIC50 (CDK2/cyclin A2; [1]): ≤ 7.00 | pIC50 (CDK4/cyclin D3; [2]): > 8.00

CC(C)Nc1nc([C@@H](C)O)cc2cnc(Nc3ccc(C4CCN(C(C)(C)C(=O)O)CC4)cn3)nc12 [Compound 796]
pIC50 (CDK2/cyclin A2; [3]): ≤ 7.00 | pIC50 (CDK4/cyclin D3; [4]): > 8.00

CC(C)Nc1nc(C(F)F)cc2cnc(Nc3ccc(NC(=O)CO)cn3)nc12 [Compound 95]
pIC50 (CDK2/cyclin A2; [1]): 7.00 to 8.00 | pIC50 (CDK4/cyclin D3; [2]): ≤ 7.00

CO[C@H](C)c1cc2cnc(Nc3ccc(N4CCNCC4)nn3)nc2c(NCC(C)C)n1 [Compound 862]
pIC50 (CDK2/cyclin A2; [3]): ≤ 7.00 | pIC50 (CDK4/cyclin D3; [4]): > 8.00

CC(C)Nc1nc([C@@H](C)O)cc2cnc(Nc3ccc(N4CCC(C(=O)O)CC4)cn3)nc12 [Compound 836]
pIC50 (CDK2/cyclin A2; [3]): ≤ 7.00 | pIC50 (CDK4/cyclin D3; [4]): 7.00 to 8.00

C[C@@H](O)c1nc(N[C@H]2CCCOC2)c2nc(Nc3ccc(N4CCNCC4)nn3)ncc2c1Cl [Compound 367]
pIC50 (CDK2/cyclin A2; [1]): ≤ 7.00 | pIC50 (CDK4/cyclin D3; [2]): > 8.00

CO[C@H](C)c1cc2cnc(Nc3ccc(N4CCN(C5COC5)CC4)nn3)nc2c(NC(C)C)n1 [Compound 680]
pIC50 (CDK2/cyclin A2; [3]): ≤ 7.00 | pIC50 (CDK4/cyclin D3; [4]): 7.00 to 8.00

CO[C@H](C)c1cc2cnc(Nc3ccc(N4CCNC[C@H]4C)nn3)nc2c(NC(C)C)n1 [Compound 372]
pIC50 (CDK2/cyclin A2; [1]): ≤ 7.00 | pIC50 (CDK4/cyclin D3; [2]): > 8.00

CC(C)Nc1nc([C@@H](C)O)cc2cnc(Nc3ccc4c(n3)CCN(S(C)(=O)=O)C4)nc12 [Compound 934]
pIC50 (CDK2/cyclin A2; [3]): ≤ 7.00 | pIC50 (CDK4/cyclin D3; [4]): > 8.00

C[C@@H](O)c1cc2cnc(Nc3ccc(N4CCNCC4)nn3)nc2c(N[C@@H]2CCOC2)n1 [Compound 252]
pIC50 (CDK2/cyclin A2; [1]): ≤ 7.00 | pIC50 (CDK4/cyclin D3; [2]): > 8.00

CC(C)Nc1nc(C(C)O)cc2cnc(Nc3ccc(C4COCCN4)cn3)nc12 (single isomer, unassigned) [Compound 866]
pIC50 (CDK2/cyclin A2; [3]): ≤ 7.00 | pIC50 (CDK4/cyclin D3; [4]): > 8.00
